For one test, the system named is NCI-H1993. Kind of test: Cytotoxicity against human NCI-H1993 cells assessed as growth inhibition after 72 hrs by CCK-8 assay. To be noted: NCI-H1993, 72 h.
In test [1] the target is Hepatocyte growth factor receptor (Homo sapiens, UniProt P08581).
Sequence of Hepatocyte growth factor receptor (P08581 whole entry): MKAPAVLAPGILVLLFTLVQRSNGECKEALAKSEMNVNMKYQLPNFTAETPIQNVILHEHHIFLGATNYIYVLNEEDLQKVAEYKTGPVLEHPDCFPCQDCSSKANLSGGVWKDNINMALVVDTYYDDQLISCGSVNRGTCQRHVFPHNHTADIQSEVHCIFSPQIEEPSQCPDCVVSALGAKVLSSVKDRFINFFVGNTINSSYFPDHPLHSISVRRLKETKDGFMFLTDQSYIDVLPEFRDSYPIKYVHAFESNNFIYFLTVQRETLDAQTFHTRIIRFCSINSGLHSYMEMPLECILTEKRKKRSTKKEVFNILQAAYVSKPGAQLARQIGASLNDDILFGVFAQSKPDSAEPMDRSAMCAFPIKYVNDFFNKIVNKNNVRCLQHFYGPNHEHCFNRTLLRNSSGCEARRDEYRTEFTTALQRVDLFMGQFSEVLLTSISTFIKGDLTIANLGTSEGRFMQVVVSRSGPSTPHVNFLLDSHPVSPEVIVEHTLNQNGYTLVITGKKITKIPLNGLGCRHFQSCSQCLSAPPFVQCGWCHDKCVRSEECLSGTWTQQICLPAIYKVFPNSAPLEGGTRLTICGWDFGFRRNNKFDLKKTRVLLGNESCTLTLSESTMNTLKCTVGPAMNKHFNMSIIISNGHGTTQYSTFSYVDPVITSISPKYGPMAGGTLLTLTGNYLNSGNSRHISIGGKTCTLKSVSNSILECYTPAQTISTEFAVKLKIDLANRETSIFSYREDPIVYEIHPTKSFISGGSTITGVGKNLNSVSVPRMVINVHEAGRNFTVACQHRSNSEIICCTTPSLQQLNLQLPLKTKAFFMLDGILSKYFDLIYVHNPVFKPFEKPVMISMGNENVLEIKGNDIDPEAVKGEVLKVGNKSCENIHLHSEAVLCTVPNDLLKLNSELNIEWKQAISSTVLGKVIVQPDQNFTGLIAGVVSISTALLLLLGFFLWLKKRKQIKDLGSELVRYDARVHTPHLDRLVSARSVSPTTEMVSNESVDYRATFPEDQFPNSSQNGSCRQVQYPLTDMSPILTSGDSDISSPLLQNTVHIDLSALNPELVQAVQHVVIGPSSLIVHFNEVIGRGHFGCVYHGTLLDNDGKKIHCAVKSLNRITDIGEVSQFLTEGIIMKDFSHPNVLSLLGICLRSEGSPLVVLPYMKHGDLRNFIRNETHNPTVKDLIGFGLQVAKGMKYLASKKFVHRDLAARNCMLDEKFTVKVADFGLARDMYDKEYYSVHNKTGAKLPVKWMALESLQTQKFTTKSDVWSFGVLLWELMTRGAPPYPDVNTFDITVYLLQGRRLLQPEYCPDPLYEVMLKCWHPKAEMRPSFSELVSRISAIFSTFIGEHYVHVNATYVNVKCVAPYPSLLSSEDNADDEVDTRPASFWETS
Description: Inhibition of c-Met kinase (unknown origin) assessed as decrease in phosphorylation of TK substrate-biotin peptide preincubated for 5 to 10 mins followed by ATP addition measured after 30 mins by HTRF assay

With `Cn1cc(-c2cnc3ncn(Cc4ccc5ncccc5c4)c3n2)cn1`, in the test on NCI-H1993, the IC50 is 617 nM.
For the molecule `CC(c1cc(F)c2ncccc2c1)n1cnc2ncc(-c3cnn(C)c3)nc21` (centres undefined), the IC50 in the test with NCI-H1993 is greater than 10000 nM; in test [1] it was 91.8 nM.
As for `CC(c1cc(F)c2ncccc2c1)n1cnc2ncc(-c3ccccc3)nc21` (centres undefined), the IC50 in the test on NCI-H1993 was greater than 10000 nM; in test [1], 155 nM.
Take `C[C@H](c1cc2cccnc2cc1F)n1cnc2ncc(-c3ccc(C(N)=O)c(F)c3)nc21`: the IC50 in the test with NCI-H1993 worked out at 329 nM; in test [1], 2.79 nM.
Take `Cn1cc(-c2cnc3nc(O)n(Cc4ccc5ncccc5c4)c3n2)cn1`: the results for the IC50 (with NCI-H1993; in test [1]) were greater than 10000 nM and greater than 1000 nM, respectively.
On to `CCC(c1cc2cccnc2cc1F)n1cnc2ncc(-c3cnc4ccccc4c3)nc21` (centres undefined), for which the IC50 in test [1] stood at 17.2 nM.
On to `C1=C(c2cnc3ncn(Cc4ccc5ncccc5c4)c3n2)CCNC1`, for which the IC50 in the test with NCI-H1993 was 6660 nM; in test [1] it was 33.2 nM.
Consider `CCC(c1ccc2ncccc2c1F)n1cnc2ncc(-c3ccc(C(=O)NC)c(F)c3)nc21` (centres undefined), for which the IC50 in test [1] was determined as 7.7 nM.
As to `Cc1c(C(C)n2cnc3ncc(-c4ccncc4)nc32)ccc2ncccc12` (centres undefined), the IC50 in the test on NCI-H1993 was 950 nM; in test [1], 4.4 nM.
For `c1ccc(-c2cnc3ncn(Cc4ccc5ncccc5c4)c3n2)cc1`, in that order: 7490 nM and 17.6 nM.
For the molecule `CC(c1cc(F)c2ncccc2c1)n1cnc2ncc(-c3cn[nH]c3)nc21` (centres undefined), the 50% inhibitory concentration (IC50) in the test on NCI-H1993 was greater than 10000 nM; in test [1], 279 nM.
For the molecule `CCC(c1cc2cccnc2cc1F)n1cnc2ncc(-c3ccc(C(=O)OC)c(F)c3)nc21` (centres undefined), the IC50 in test [1] worked out at 18.1 nM.
Still for that read-out and setting: the value for `CC(c1c(F)cc2ncccc2c1F)n1cnc2ncc(-c3cccc4ccccc34)nc21` (centres undefined) was 23.8 nM.
`CC(NC/N=C/c1cnc2[nH]ccc2c1)c1ccc2ncccc2c1` (centres undefined): the IC50 in the test on NCI-H1993 was determined as 956 nM; in test [1], 3.3 nM.
In the same order, the values of `CCC(c1cc2cccnc2cc1F)n1cnc2ncc(-c3ccc(C(N)=O)c(F)c3)nc21` (centres undefined) are 226 nM and 2.5 nM.
Take `CC(NC/N=C/c1cnn(CCO)c1)c1ccc2ncccc2c1` (centres undefined): the IC50 in the test with NCI-H1993 was determined as 148 nM; in test [1], 12.7 nM.
For `Nc1ccc(-c2cnc3ncn(Cc4ccc5ncccc5c4)c3n2)cc1`, in that order: 4950 nM and 12.4 nM.
As to `COC(=O)c1ccc(-c2cnc3ncn(C(C)c4ccc5ncccc5c4C)c3n2)cc1F` (centres undefined), in test [1], the IC50 came out at 5.9 nM.
Take `Cc1c(C(C)n2cnc3ncc(-c4cnn(C)c4)nc32)ccc2ncccc12` (centres undefined): the IC50 came to 206 nM with NCI-H1993 and 3.2 nM in test [1].
Consider `CCC(c1ccc2ncccc2c1F)n1cnc2ncc(-c3ccccc3)nc21` (centres undefined), for which the IC50 in test [1] amounted to 81 nM.
Consider `CC(NC/N=C/c1ccccc1)c1ccc2ncccc2c1` (centres undefined), for which the IC50 was 1220 nM in the test with NCI-H1993 and 5.17 nM in test [1].
Take `CC(NC/N=C/C1=CCNCC1)c1ccc2ncccc2c1` (centres undefined): the half-inhibitory concentration (IC50) in the test with NCI-H1993 amounted to 2660 nM; in test [1] it was 15.2 nM.
In the case of `Cc1cc2ncccc2cc1C(C)n1cnc2ncc(-c3cnc4ccccc4c3)nc21` (centres undefined), half-maximal inhibition in test [1] (IC50) required 38.1 nM.
As to `CC(c1cc2cccnc2cc1F)n1cnc2ncc(-c3cn[nH]c3)nc21` (centres undefined), the results for the IC50 (in the test on NCI-H1993; in test [1]) were 187 nM and 3.6 nM, respectively.
In the case of `CCC(c1cc2cccnc2cc1F)n1cnc2ncc(-c3cnn(C)c3)nc21` (centres undefined), in test [1], the IC50 is 10.6 nM.
Still for that read-out and setting: with `CCC(c1cc2cccnc2cc1F)n1cnc2ncc(-c3cnn(CCO)c3)nc21` (centres undefined) the figure was 9.3 nM.
Regarding `FC(F)(F)c1ccc(-c2cnc3ncn(Cc4ccc5ncccc5c4)c3n2)cc1`, the IC50 with NCI-H1993 was greater than 10000 nM; in test [1] it was 27.9 nM.
For `Cc1c(C(C)n2cnc3ncc(-c4cnc5ccccc5c4)nc32)ccc2ncccc12` (centres undefined), in that order: 450 nM and 4.9 nM.
For `OCCn1cc(-c2cnc3ncn(Cc4ccc5ncccc5c4)c3n2)cn1`, the IC50 was 2320 nM with NCI-H1993 and 15.9 nM in test [1].
The molecule `Cc1cc2ncccc2cc1C(C)n1cnc2ncc(-c3cnn(C)c3)nc21` (centres undefined) yielded an IC50 in test [1] of 32.6 nM.
On the same count and under the same terms, the value for `CNC(=O)c1ccc(-c2cnc3ncn(C(C)c4cc5cccnc5cc4C)c3n2)cc1F` (centres undefined) was 31 nM.
For the molecule `COC(=O)c1ccc(/C=N/CNC(C)c2ccc3ncccc3c2)cc1F` (centres undefined), the IC50 in the test on NCI-H1993 was found to be 1110 nM; in test [1], 6.41 nM.
With `CCC(c1ccc2ncccc2c1F)n1cnc2ncc(-c3cnn(C)c3)nc21` (centres undefined), in test [1], the half-inhibitory concentration (IC50) came out at 13.5 nM.
For the molecule `Cc1c(C(C)n2cnc3ncc(-c4cn[nH]c4)nc32)ccc2ncccc12` (centres undefined), the IC50 turned out to be 599 nM in the test on NCI-H1993 and 2.7 nM in test [1].
For the molecule `CCC(c1ccc2ncccc2c1F)n1cnc2ncc(-c3ccc(C(=O)OC)c(F)c3)nc21` (centres undefined), half-maximal inhibition in test [1] (IC50) required 39.2 nM.
`Fc1ccccc1-c1cnc2ncn(Cc3ccc4ncccc4c3)c2n1`: the results for the IC50 (in the test with NCI-H1993; in test [1]) were greater than 10000 nM and 24.6 nM, respectively.
In the same order, the values of `CC(c1cc2cccnc2cc1F)n1cnc2ncc(-c3ccncc3)nc21` (centres undefined) are 171 nM and 3.8 nM.
In the same order, the values of `FC(F)(F)Oc1ccc(-c2cnc3ncn(Cc4ccc5ncccc5c4)c3n2)cc1` are greater than 10000 nM and 81.2 nM.
In the same order, the values of `c1cnc2ccc(Cn3cnc4ncc(-c5cn[nH]c5)nc43)cc2c1` are 2890 nM and 13.2 nM.
As for `Oc1nc2ncc(-c3ccncc3)nc2n1Cc1ccc2ncccc2c1`, the IC50 with NCI-H1993 is greater than 10000 nM; in test [1], greater than 1000 nM.
With `CCC(c1ccc2ncccc2c1F)n1cnc2ncc(-c3cnn(CCO)c3)nc21` (centres undefined), the half-maximal inhibitory concentration (IC50) in test [1] was 22.5 nM.
With `CC(NC/N=C/c1cnn(C)c1)c1ccc2ncccc2c1` (centres undefined), the results for the IC50 (in the test with NCI-H1993; in test [1]) were 197 nM and 2.49 nM, respectively.
In the same order, the values of `Oc1nc2ncc(-c3ccccc3)nc2n1Cc1ccc2ncccc2c1` are greater than 10000 nM and greater than 1000 nM.
For `CC(NC/N=C/c1ccc(C(N)=O)c(F)c1)c1ccc2ncccc2c1` (centres undefined), in that order: 238 nM and 2.74 nM.
Turning to `CCC(c1ccc2ncccc2c1F)n1cnc2ncc(-c3cnc4ccccc4c3)nc21` (centres undefined), inhibition in test [1] was half-maximal at 16.4 nM (IC50).
As to `CCC(c1ccc2ncccc2c1F)n1cnc2ncc(-c3ccc(C(N)=O)c(F)c3)nc21` (centres undefined), the values for the IC50 (in the test with NCI-H1993; in test [1]) were 665 nM and 1.6 nM, respectively.
Take `CNC(=O)c1ccc(/C=N/CNC(C)c2ccc3ncccc3c2)cc1F` (centres undefined): the IC50 in the test on NCI-H1993 came out at 191 nM; in test [1], 3.95 nM.
In the same order, the values of `CC(c1c(F)cc2ncccc2c1F)n1cnc2ncc(-c3ccccc3)nc21` (centres undefined) are 514 nM and 1.8 nM.
The molecule `CCC(c1cc2cccnc2cc1F)n1cnc2ncc(-c3ccc(C(=O)NC)c(F)c3)nc21` (centres undefined) yielded an IC50 in test [1] of 9.4 nM.
On to `CC(NC/N=C/c1ccnn1C)c1ccc2ncccc2c1` (centres undefined), for which the IC50 in the test with NCI-H1993 worked out at 3280 nM; in test [1] it was 38.5 nM.
For `Cn1nccc1-c1cnc2ncn(Cc3ccc4ncccc4c3)c2n1`, in that order: 7910 nM and 66.6 nM.
As to `CN(C)c1cccc(-c2cnc3ncn(Cc4ccc5ncccc5c4)c3n2)c1`, the IC50 in the test with NCI-H1993 was greater than 10000 nM; in test [1] it was 40 nM.
With `CC(c1cc2cccnc2cc1F)n1cnc2ncc(-c3cnc4ccccc4c3)nc21` (centres undefined), the values for the IC50 (with NCI-H1993; in test [1]) were 109 nM and 3.4 nM, respectively.
With `CCC(c1ccc2ncccc2c1F)n1cnc2ncc(-c3cn[nH]c3)nc21` (centres undefined), the IC50 in test [1] was determined as 37.7 nM.
With `CC(NC/N=C/c1cn[nH]c1)c1ccc2ncccc2c1` (centres undefined), the IC50 in the test with NCI-H1993 worked out at 519 nM; in test [1], 11.4 nM.
In test [1], `Cc1cc2ncccc2cc1C(C)n1cnc2ncc(-c3ccc(C(N)=O)c(F)c3)nc21` (centres undefined) showed a half-maximal inhibitory concentration (IC50) of 11.7 nM.
For `CCC(c1cc2cccnc2cc1F)n1cnc2ncc(-c3ccccc3)nc21` (centres undefined), in test [1], half-maximal inhibition (IC50) required 28.1 nM.
`CC(c1cc(F)c2ncccc2c1)n1cnc2ncc(-c3ccncc3)nc21` (centres undefined): the IC50 with NCI-H1993 is greater than 10000 nM; in test [1], 190 nM.
For `Cc1nc2ncc(-c3cnn(C)c3)nc2n1Cc1ccc2ncccc2c1`, in that order: greater than 10000 nM and 641 nM.
Turning to `COC(=O)c1ccc(-c2cnc3ncn(C(C)c4cc5cccnc5cc4C)c3n2)cc1F` (centres undefined), in test [1], it took 64.5 nM to reach half-maximal inhibition (IC50).
The same measure, in the same setting: with `CCC(c1cc2cccnc2cc1F)n1cnc2ncc(-c3cn[nH]c3)nc21` (centres undefined) the figure was 8.7 nM.
Consider `CC(c1cc2cccnc2cc1F)n1cnc2ncc(-c3cnn(CCO)c3)nc21` (centres undefined), for which the IC50 in the test with NCI-H1993 amounted to 175 nM; in test [1], 4.5 nM.
For `C[C@H](c1cc2cccnc2cc1F)n1cnc2ncc(-c3cnn(C)c3)nc21`, in that order: 239 nM and 1.94 nM.
In the same order, the values of `c1cnc2ccc(Cn3cnc4ncc(-c5ccncc5)nc43)cc2c1` are 1160 nM and 17.5 nM.
Regarding `CCC(c1cc2cccnc2cc1F)n1cnc2ncc(-c3ccncc3)nc21` (centres undefined), the IC50 in test [1] stood at 14.1 nM.
Consider `CC(NC/N=C/c1ccncc1)c1ccc2ncccc2c1` (centres undefined), for which the results for the IC50 (in the test on NCI-H1993; in test [1]) were 614 nM and 3.67 nM, respectively.
For `Cc1c(C(C)n2cnc3ncc(-c4cnn(CCO)c4)nc32)ccc2ncccc12` (centres undefined), in that order: 726 nM and 4.2 nM.
The molecule `CCC(c1ccc2ncccc2c1F)n1cnc2ncc(-c3ccncc3)nc21` (centres undefined) displayed an IC50 in test [1] of 100 nM.
For `CC(c1cc2cccnc2cc1F)n1cnc2ncc(-c3ccccc3)nc21` (centres undefined), the results for the IC50 (in the test on NCI-H1993; in test [1]) were 570 nM and 4.6 nM, respectively.
As to `Cc1cc2ncccc2cc1C(C)n1cnc2ncc(-c3ccncc3)nc21` (centres undefined), it took 68.3 nM to reach half-maximal inhibition in test [1] (IC50).
On to `CC(c1cc(F)c2ncccc2c1)n1cnc2ncc(-c3cccc4ccccc34)nc21` (centres undefined), for which the IC50 in test [1] was greater than 1000 nM.
As for `CC(c1cc(F)c2ncccc2c1)n1cnc2ncc(-c3cnc4ccccc4c3)nc21` (centres undefined), the figures for the IC50 (with NCI-H1993; in test [1]) were greater than 10000 nM and 134 nM, respectively.
Consider `OCCn1cc(-c2cnc3nnn(Cc4ccc5ncccc5c4)c3n2)cn1` [PF-04217903], for which, in the test on NCI-H1993, the IC50 was determined as 33.6 nM.
